Article PMC10031046, “Competition between FLS and DFR regulates the distribution of flavonols and proanthocyanidins in Rubus chingii Hu” (Frontiers in Plant Science, 2023)

Tests used:
RcFLS1 = tested on: T1, RcFLS1; assay: HPLC product assay, Michaelis-Menten fit; assay type: biochemical, Rubus chingii; settings: 100 mM Tris-HCl pH 7.5, 10 mM ascorbate, 10 μM FeSO4, 10 mM 2-oxoglutarate, catalase, 30 °C; kcat unit is 10^-3 s^-1
T1 construct: gene FLS1; N-terminal MBP fusion (pMAL-c2X), E. coli BL21(DE3), amylose resin
Text: HPLC product assay, Michaelis-Menten fit on RcFLS1

RcDFR = tested on: T2, RcDFR; assay: anthocyanidin formation after butanol-HCl, A530, Michaelis-Menten fit; assay type: biochemical, Rubus chingii; settings: 1 mM NADPH, 0.1 M PBS pH 7.0, 30 °C, 1 h; kcat unit is 10^-3 s^-1
T2 construct: gene DFR; N-terminal MBP fusion (pMAL-c2X), E. coli BL21(DE3), amylose resin
Text: anthocyanidin formation after butanol-HCl, A530, Michaelis-Menten fit on RcDFR

Km (RcFLS1) | Km (RcDFR) | Structure (SMILES)
43.6 ± 14.6 µM | – | O=C1C[C@@H](c2ccc(O)cc2)Oc2cc(O)cc(O)c21 [N, Naringenin]
56.9 ± 16.4 µM | 125 ± 11.4 µM | O=C1c2c(O)cc(O)cc2O[C@H](c2ccc(O)c(O)c2)[C@H]1O [DHQ, Dihydroquercetin]
33.9 ± 8.66 µM | 47.2 ± 5.79 µM | O=C1c2c(O)cc(O)cc2O[C@H](c2ccc(O)cc2)[C@H]1O [DHK, Dihydrokaempferol]
34.5 ± 9.34 µM | – | O=C1C[C@@H](c2ccc(O)c(O)c2)Oc2cc(O)cc(O)c21 [E, Eriodictyol]
